These results are taken from US10053422B2, “Compounds for the treatment of mTOR pathway related diseases” (Pitney Pharmaceuticals Pty Limited, priority 2012, dated 2018).

For one series, the system named is OVCAR-3 cells. Put plainly: SRB cell proliferation assay, OVCAR-3. Format: cell-based, human. The method, then: (§1) Cell proliferation was assessed using the sulforhodamine B (SRB) assay. Cells seeded in 96-well plate (2,000-3,000 cell/well) were treated with MPL (0, 1, 5, 10, 25, 50 and 100 μmol/L) for 72 h. Cells were then fixed, washed and stained with 100 μl of 0.4% (w/v) SRB dissolved in 1% acetic acid. Unbound dye was removed by five washes with 1% acetic acid before air drying. Bound SRB was solubilized with 100 μl of 10 mM Tris base (pH 10.5) and the absorbance read at 570 nm. Exactly the same procedure was used to assess MPL-SO2. Both agents were dissolved in ethanol and diluted with media to give the final concentrations required for cell culture assays.

In the next series the test system is MDA-MB-231 cells. Put plainly: SRB cell proliferation assay, MDA-MB-231. The note with it: Homo sapiens. Format: cell-based. The method, then: as §1
The next series concerns YOU cells (mesothelioma). Put plainly: SRB cell proliferation assay, YOU. The note with it: for IC50: YOU. Format: cell-based. The procedure:
as §1

In series [1] the test system is DU-145 prostate cancer cells. Put plainly: SRB cell proliferation assay, DU-145. Format: cell-based. The note with it: for IC50: Homo sapiens. The method, then: as §1
Series [2] deals with HEK (Human Embryonic Kidney). The series is described as follows: SRB cell proliferation assay, HEK. Format: cell-based. The method, then: as §1
In the next series the test system is 3T3 fibroblast. The series is described as follows: SRB cell proliferation assay, 3T3. Format: cell-based. The note with it: 3T3, fibroblast (Table 2); read-out: IC50 in suppressing proliferation. The procedure:
as §1

Another series deals with OVCAR-3 or A2780 cells. The series is described as follows: Cell cycle analysis by flow cytometry. Format: cell-based, human. The procedure:
OVCAR-3 (FIG. 3a) or A2780 (FIG. 3b) cells were treated with MPL (0, 5, 10 and 25 μmol/L) for 48 hours. Propodium iodide stained cells were analysed for DNA content using flow cytometric analysis. The results (see table) are shown as a percentage of cells in G1, S and G2/M phases. Each value represents mean±SEM of 2 independent experiments.
OVCAR-3 or A2780 cells were treated with MPL (0, 5, 10, 25 μM) for 48 h and examined by flow cytometric analysis (FACS) after staining the cells with PI. The Fig. and data present MPL-induced change in cell distribution in various phases of the cell cycle, here shown as percentage of cells in G1, S and G2/M phases. Each value represents mean±SEM of 2 independent determinations.
The effect of MPL on the cell cycle was determined using standard flow cytometry analysis protocols and procedures. Briefly, 0.7×10^6 […] cells seeded in […] flasks and allowed to adhere overnight were treated with MPL for 24 or 48 h. Cells were collected with trypsinization and pooled with the cells floating in the medium. The cell suspensions were centrifuged, washed with PBS and fixed with methanol. Cells were then washed, resuspended in propodium iodide and ribonuclease A in PBS for 30 min at room temperature and analyzed by flow cytometry (Becton Dickinson FACSort).
On the technique in general: A flow cytometer gives signals particle by particle.

Series [3] has as its system cdk2, cdk4, cyclins A, and E. Put plainly: Western blot of cell cycle regulatory proteins. Format: cell-based. The note with it: MPL 0, 5, 10, 25 μM. The method, then:
Whole-protein extracts were obtained and separated by electrophoresis and immunoblots were probed with the indicated antibodies. Western blot analysis showing the levels of these proteins in each extract was analysed using the relevant antibodies. The image represents the exposed radiographic film scanned. The house-keeping gene (GAPDH) was used to confirm similar protein loading and blot transfer.
Whole-protein extracts were obtained and separated by electrophoresis, and immunoblots were probed with the indicated antibodies. Western blot analysis showing the levels of these proteins in each extract was analysed using the relevant antibodies. The image represents the exposed radiographic film scanned. The house-keeping gene (GAPDH) was used to confirm similar protein loading and blot transfer.
(§2) Protein expression in cells was determined using western blot analysis. After treatment with the indicated concentrations of MPL, cell lysates were prepared and probed with antibodies for cdk2, cdk4, cyclin A, cyclin E, PARP-1 (1:1000 dilutions; Cell Signalling Technology), and p53 (1:200 dilutions; Santa Cruz Biotechnology).
On the technique in general: In western blotting, separated proteins are transferred to a membrane and probed.

Series [4] relates to PARP-1 in OVCAR-3 and A2780 cells. The series is described as follows: Western blot of PARP and cleaved PARP. The note with it: MPL 0, 5, 10, 25 μM; 24, 48 or 72 h. Format: cell-based, human. The procedure:
OVCAR-3 and A2780 cells grown under cell culture conditions were incubated with various concentrations of MPL [0, 5, 10, 25 μM] for 24, 48 or 72 hours. Cell lysates were then prepared and analysed by western blotting for the determination of PARP and cleaved PARP.
Exposure of OVCAR-3 or A2780 cells to MPL (0, 5, 10, 25 μM) for 24, 48 or 72 h causes cleavage of PARP, which leads to cellular disassembly and serves as a marker of dying cells.
as §2
To investigate whether the MPL-induced cell death involves cleavage of PARP, western blot analysis of lysates of MPL-treated cells for PARP-1 and cleaved PARP-1 was carried out. Cleavage of PARP-1 promotes apoptosis by preventing DNA-repair-induced survival.

Series [5] has as its system A2780 ovarian cancer cells. Put plainly: Autophagy (vacuole formation), A2780. Format: cell-based, human. An excerpt: (§3) Autophagy is a characteristic of mTOR inhibition.
The next series deals with U87 glioma cells. The series is described as follows: Autophagy (vacuoles, LC3-II), U87. Format: cell-based. The note with it: chemo-resistant U87 glioma cells, concentration-dependent.
Source text: as §3
(§4) Concentration-dependent conversion of LC3-I to LC3-II confirms the increasing phenomenon of autophagy in these cells.

Another series deals with U251 glioma cells. The series is described as follows: Autophagy (vacuoles), U251. Format: cell-based.
Source text: as §4

The conditions of series [6]: cited from earlier work.

“Also recorded” adds a separate entry of the source. Where two headings read alike, the source gives them in different places. Some results are limits rather than exact numbers.

On to `C[C@](C#N)(COc1cc(C#N)ccc1C(F)(F)F)NC(=O)c1ccc(SC(F)(F)F)cc1` [MPL, N-[(1S)-1-Cyano-2-(5-cyano-2-trifluoromethyl-phenoxy)-1-methyl-ethyl]-4-trifluoromethylsulfanyl-benzamide], for which the IC50 stood at 6.3 µM in the series on OVCAR-3 cells (Homo sapiens, OVCAR-3, ovarian cancer, 72 h in vitro treatment, SRB assay (Table 1), read-out: IC50); 7.9 ± 0.9 µM with OVCAR-3 cells (OVCAR-3, human epithelial ovarian cancer (Table 3), read-out: IC50 μM OVCAR-3); 23.8 ± 0.2 µM in the series on MDA-MB-231 cells (MDA-MB-231, breast cancer (Table 2), read-out: IC50 in suppressing proliferation); 24 µM in the series with MDA-MB-231 cells (MDA-MB-231, breast cancer, 72 h, SRB assay (Table 1), read-out: IC50); 23 µM in the series on YOU cells (mesothelioma) (mesothelioma (Table 2), read-out: IC50 in suppressing proliferation); 23.1 µM in the series with YOU cells (mesothelioma) (mesothelioma, 72 h, SRB assay (Table 1), read-out: IC50). Also, the IC50 in series [1] (DU-145, prostate cancer (Table 2), read-out: IC50 in suppressing proliferation) came to 23 µM; in series [1] (DU-145, prostate cancer, 72 h, SRB assay (Table 1), read-out: IC50), 23.5 µM; in series [2] (HEK (Table 2), read-out: IC50 in suppressing proliferation), 34.6 ± 0.86 µM; in [2] (HEK, 72 h, SRB assay (Table 1), read-out: IC50) it was 50.5 µM; in the series with 3T3 fibroblast, 12.4 ± 0.37 µM. Also, the “potency of MPL-(R) compared with MPL-(S)” value with OVCAR-3 cells (results of Table 3) is recorded as “equipotent”. Moreover, the “replication of YOU cells” value with YOU cells (mesothelioma) (highly resistant to chemotherapy) is on record as “profoundly suppressed”. In addition, the “effect on DU 145 cells” value in series [1] (chemo-resistant, androgen insensitive DU 145) is “very effective”. For the same molecule, the “percentage of cells in the G2-M phase, vehicle treated group versus treated group” value in the series on OVCAR-3 or A2780 cells (25 μM MPL) was “more than three times higher”. The cell cycle progression entry with OVCAR-3 or A2780 cells (concentration and time-dependent) is “arrested in the G1 phase”. Besides, the “expression of cell cycle regulatory proteins cdk2, cdk4, cyclins A and E” value in series [3] is “lower levels of cdk2, cdk4, cyclins A, and E”. The “cleavage of PARP” value in series [4] was “PARP was cleaved; also recorded: highly induced cleavage of PARP”. In addition, the “formation of vacuoles (autophagy)” value in series [5] was “formation of vacuoles”. For the same molecule, the “expression of LC3-II (autophagy)” value in the series on U87 glioma cells was “increased expression of LC3-II”. Besides, the “formation of autophagy (vacuoles)” value in the series on U251 glioma cells is “concentration-dependent formation of autophagy”. Besides, the clinical tolerance result in series [6] (1000 mg of MPL per kg of body weight per 24 hours, mammals) is on record as “well tolerated”. Besides, in series [6] (animals), the “dose tolerated by animals when used as an anthelmintic” value is “up to 2000 mg/kg”. Moreover, the single-dose toxicity in [6] (single dose) is on record as > 2000 mg per kg of body weight.
